Assay results published in ChEMBL document CHEMBL1681658, “Design, synthesis and SAR of a series of 1,3,5-trisubstituted benzenes as thrombin inhibitors” (Bioorg Med Chem Lett, 2011).

Key:
[1] = biological target: Prothrombin (Homo sapiens, UniProt P00734); assay: Inhibition of thrombin
[2] = Inhibition of trypsin
[3] = tested on: Plasma; assay: Anticoagulant activity in human plasma assessed as concentration required to double activated partial thromboplastin time; assay type: functional

SMILES | Ki [1] | Ki [2] | 2aPTT [3]
Cc1cc(OCCc2nc[nH]c2C)cc(C(=O)N(CC(C)C)CC(C)C)c1 | 3.5 nM | 2600 nM | 4.1 µM
Cc1cc(OCC(F)(F)c2cc(C)ccn2)cc(C(=O)N(CC(C)C)CC(C)C)c1 | 37 nM | > 100000 nM | 
Cc1cc(OCCc2ccccc2CN)cc(C(=O)N(CC(C)C)CC(C)C)c1 | 2.9 nM | 29000 nM | 3.6 µM
COc1ccc(Cl)cc1CCOc1cc(C)cc(C(=O)N(CC(C)C)CC(C)C)c1 | 34 nM | > 100000 nM | 
Cc1cc(OCCc2ccccc2-n2cnnn2)cc(C(=O)N(CC(C)C)CC(C)C)c1 | 1.7 nM | 37000 nM | 4.4 µM
Cc1cc(OCCc2cc(Cl)ccc2-n2cncn2)cc(C(=O)N(CC(C)C)CC(C)C)c1 | 0.93 nM | 28000 nM | 7.1 µM
COC(=O)COc1ccc(Cl)cc1CCOc1cc(C)cc(C(=O)N(CC(C)C)CC(C)C)c1 | 0.73 nM | > 100000 nM | >8.2 µM
Cc1cc(OCCc2cc(Cl)ccc2OCC(=O)NC2CCCNC2)cc(C(=O)N(CC(C)C)CC(C)C)c1 (stereo unspecified) | 1.6 nM | 78000 nM | >8.2 µM
Cc1cc(C(=O)NCc2cc(Cl)ccc2CN)cc(C(=O)N(CC(C)C)CC(C)C)c1 | 0.68 nM | 111000 nM | 1.6 µM
Cc1cc(C(=O)NCc2cc(Cl)ccc2-n2cncn2)cc(C(=O)N(CC(C)C)CC(C)C)c1 | 7 nM | > 100000 nM | 5.3 µM
Cc1cc(C(=O)NCc2cc(Cl)ccc2-n2cnnn2)cc(C(=O)N(CC(C)C)CC(C)C)c1 | 0.27 nM | 29000 nM | 1.2 µM
Cc1cc(C(=O)NCc2ccccc2-n2cnnn2)cc(C(=O)N(CC(C)C)CC(C)C)c1 | 50 nM | > 100000 nM | 
Cc1cc(C(=O)NCc2cc(Cl)ccc2-n2cnnn2)cc(-c2cnccc2N(C)C)c1 | 67 nM | 302000 nM | 
CC(=O)c1ccncc1-c1cc(C)cc(C(=O)NCc2cc(Cl)ccc2-n2cnnn2)c1 | 85 nM | > 100000 nM | 
Cc1cc(C(=O)NCc2cc(Cl)ccc2-n2cnnn2)cc(-c2cnccc2C(C)C)c1 | 0.27 nM | > 100000 nM | 1.5 µM
Cc1cc(C(=O)NCc2cc(Cl)ccc2-n2cnnn2)cc(-c2c[n+]([O-])ccc2C(C)C)c1 | 0.77 nM | 483000 nM | 0.38 µM
Cc1cc(C(=O)NCc2cc(Cl)ccc2-n2cnnn2)cc(C2CNCCC2CC(C)C)c1 (stereo unspecified) | 1.8 nM | 278000 nM | 1.42 µM
Cc1cc(NC2CCCCC2)cc(C(=O)NCc2cc(Cl)ccc2-n2cnnn2)c1 | 9.6 nM | > 100000 nM | >8.2 µM
CC(=O)N(c1cc(C)cc(C(=O)NCc2cc(Cl)ccc2-n2cnnn2)c1)C1CCCCC1 | 4.1 nM | > 100000 nM | 1.67 µM
Cc1cc(C(=O)NCc2cc(Cl)ccc2-n2cnnn2)cc(N(C2CCCCC2)S(C)(=O)=O)c1 | 0.93 nM | > 100000 nM | 0.87 µM
Cc1cc(C(=O)NCc2cc(Cl)ccc2-n2cnnn2)cc(N(CCN)C2CCCCC2)c1 | 1.6 nM | 75000 nM | 1.48 µM
Cc1cc(C(=O)NCc2cc(Cl)ccc2-n2cnnn2)cc(N(C2CCCC2)S(C)(=O)=O)c1 | 1.25 nM | > 100000 nM | 0.75 µM
